Experimental data taken from US20200155609A1, “COMPOSITIONS AND METHODS OF MAKING EXPANDED HEMATOPOIETIC STEM CELLS USING PTEN INHIBITORS” (Transfusion Health LLC, priority 2017, published 2020).

Assays:
[1] = tested on: CD34+ cells isolated from donor non-mobilized peripheral blood (CD133+ and CD90+ cells); assay: Relative expansive effect of SF1670 derivatives, fold change days 2 to 7, non-mobilized peripheral blood CD34+ cells (Example 21); type: cell-based, human; details: fold change days 2 to 7 normalized to basic and +SF (500 nM SF1670) controls
Description: CD34+ cells were isolated from donor peripheral blood as described in Example 20. Isolated CD34+ cells were incubated in an in vitro culture media of Alpha MEM without phenol red, 10% (v/v) heat inactivated fetal bovine serum (FBS). When testing the substituted derivatives of 9,10-dihydrophenathrene and phenanthrene (+Derivative conditions), two internal controls were used: a positive control (+SF conditions) and a baseline control (i.e, basic conditions (“cytokines only”)). The media components and concentrations used for the compounds tested are described in Table 6. The culture also included an antibiotic solution that includes penicillin, streptomycin, and amphotericin B to avoid contamination. Controls were included because the amount of expansion in samples obtained varies from individual to individual.
(§1) Cultures were incubated at 3% oxygen (controlled by nitrogen) and 5% CO2.
Small molecule components were added separately and fresh each time the media needs to be refreshed. Cytokines can be stored together. Media renewal should occur at least every few days.
On the days indicated one-half of the volume of the cell culture was removed for data analysis (flow cytometry using a BD FACS ARIA II). The culture volume was replenished with fresh media according to the conditions tested. The data reported accounts for the dilution factor introduced in this procedure.
Separate experiments were performed for each compound tested (Compound 1.001-1.012).
Table 7, below, summarizes the relative expansive effect of Compound 1.001 to 1.012 (sample compounds) at the indicated concentration. The data in Table 7 is reported as the relative expansive effect. The relative expansive effect is a normalized value of the fold changes shown in each of the figures. It is calculated as shown below: […]

[2] = tested on: CD34+ cells isolated from donor non-mobilized peripheral blood (CD133+ and CD90+ cells); assay: Relative expansive effect (relative cell number) of SF1670 derivatives, non-mobilized peripheral blood CD34+ cells, cytokines with IL-6 (Example 22); type: cell-based, human
Description: CD34+ cells were isolated from donor peripheral blood as described in Example 20. Isolated CD34+ cells were incubated in an in vitro culture media of Alpha MEM without phenol red, 10% (v/v) heat inactivated fetal bovine serum (FBS). When testing the substituted derivatives of 9,10-dihydrophenathrene (+Derivative conditions), two internal controls were used: a positive control (+SF conditions) and a baseline control (i.e, basic conditions (“cytokines only”)). The media components and concentrations used for the compounds tested are described in Table 8. The culture also included an antibiotic solution that includes penicillin, streptomycin, and amphotericin B to avoid contamination. Controls were included because the amount of expansion in samples obtained varies from individual to individual.
as §1
After the indicated number of days one-half of the volume of the cell culture was removed for data analysis (flow cytometry using a BD FACS ARIA II). The culture volume was replenished with fresh media according to the conditions tested.
Separate experiments were performed for each compound tested (Compound 1.014-1.016).
Table 9, below, summarizes the relative expansive effect of Compound 1.014 to 1.016 (sample compounds) at the indicated concentration. The data in Table 9 is reported as the relative cell number. The relative cell number is the normalized value of cell counts after the indicated number of days in culture. It is calculated as shown below: […]

[3] = 7 days in culture, 1 μM sample compound
[4] = 5 days in culture, 0.25 μM sample compound
[5] = 7 days in culture, 2 μM sample compound

For `CC(C)(C)C(=O)CNc1ccc2c(c1)C(=O)C(=O)c1ccccc1-2` [Compound 1.002, 2-((3,3-dimethyl-2-oxobutyl)amino)phenanthrene-9,10-dione], the “CD90 effect (relative expansive effect of CD90+ cells)” value ([1]; 1 μM sample compound) was “++ (0.2 ≤ x < 0.55)” and the “CD133 effect (relative expansive effect of CD133+ cells)” value ([1]; 1 μM sample compound) was “+ (x < 0.2)”.
`CCCCCCCCCC(=O)Nc1ccc2c(c1)C(=O)C(=O)c1ccccc1-2` [Compound 1.005, N-(9,10-dioxo-9,10-dihydrophenanthren-2-yl)decanamide] was tested, and the “CD90 effect (relative expansive effect of CD90+ cells)” value ([1]; 2 μM sample compound) was “++ (0.2 ≤ x < 0.55)” and the “CD133 effect (relative expansive effect of CD133+ cells)” value ([1]; 2 μM sample compound) was “+ (x < 0.2)”.
With `CCCC(C)(C)C(=O)Nc1ccc2c(c1)C(=O)C(=O)c1ccccc1-2` [Compound 1.010, N-(9,10-dioxo-9,10-dihydrophenanthren-2-yl)-2,2-dimethylpentanamide] the “CD90 effect (relative expansive effect of CD90+ cells)” value ([1]; 0.125 μM sample compound) was “+++ (0.55 ≤ x < 0.9)” and the “CD133 effect (relative expansive effect of CD133+ cells)” value ([1]; 0.125 μM sample compound) was “+ (x < 0.2)”.
In the case of `CCC(C)(C)C(=O)Nc1ccc2c(c1)C(=O)C(=O)c1ccccc1-2` [Compound 1.008, N-(9,10-dioxo-9,10-dihydrophenanthren-2-yl)-2,2-dimethylbutanamide], the “CD90 effect (relative expansive effect of CD90+ cells)” value ([1]; 1 μM sample compound) is reported as “++ (0.2 ≤ x < 0.55)” and the “CD133 effect (relative expansive effect of CD133+ cells)” value ([1]; 1 μM sample compound) is reported as “++ (0.2 ≤ x < 0.55)”.
For `O=C1C(=O)c2ccc(NC(=O)C(Cl)(Cl)Cl)cc2-c2ccccc21` [Compound 1.011, 2,2,2-trichloro-N-(9,10-dioxo-9,10-dihydrophenanthren-3-yl)acetamide], the “CD90 effect (relative expansive effect of CD90+ cells)” value ([1]; 0.25 μM sample compound) was “++++ (0.9 ≤ x < 1.25)” and the “CD133 effect (relative expansive effect of CD133+ cells)” value ([1]; 0.25 μM sample compound) was “++ (0.2 ≤ x < 0.55)”.
`CC(=O)Nc1ccc2c(c1)C(=O)C(=O)c1ccccc1-2` [Compound 1.006, N-(9,10-dioxo-9,10-dihydrophenanthren-2-yl)acetamide] was tested, and the “CD90 effect (relative expansive effect of CD90+ cells)” value ([1]; 0.5 μM sample compound) was “++ (0.2 ≤ x < 0.55)” and the “CD133 effect (relative expansive effect of CD133+ cells)” value ([1]; 0.5 μM sample compound) was “+ (x < 0.2)”.
For `CC(C)(C)C(=O)Nc1ccc2c(c1)C(=O)C(=O)c1cc(N)ccc1-2` [Compound 1.007, N-(7-amino-9,10-dioxo-9,10-dihydrophenanthren-2-yl)pivalamide], the “CD90 effect (relative expansive effect of CD90+ cells)” value ([1]; 1 μM sample compound) was “++ (0.2 ≤ x < 0.55)” and the “CD133 effect (relative expansive effect of CD133+ cells)” value ([1]; 1 μM sample compound) was “++ (0.2 ≤ x < 0.55)”.
`COCCOc1c(O)c2cc(NC(=O)C(C)(C)C)ccc2c2ccccc12` [Compound 1.014, N-(10-hydroxy-9-(2-methoxyethoxy)phenanthren-2-yl)pivalamide] was tested, and the “CD90 effect (relative expansive effect, relative cell number)” value [2, 3] was “++ (0.2 ≤ x < 0.55)” and the “CD133 effect (relative expansive effect, relative cell number)” value [2, 3] was “++ (0.2 ≤ x < 0.55)”.
With `CC(C)(C)CC(=O)Nc1ccc2c(c1)C(=O)C(=O)c1ccccc1-2` [Compound 1.004, N-(9,10-dioxo-9,10-dihydrophenanthren-2-yl)-3,3-dimethylbutanamide] the “CD90 effect (relative expansive effect of CD90+ cells)” value ([1]; 0.125 μM sample compound) was “++ (0.2 ≤ x < 0.55)” and the “CD133 effect (relative expansive effect of CD133+ cells)” value ([1]; 0.125 μM sample compound) was “+ (x < 0.2)”.
For `CC(C)(C)C(=O)Nc1ccc2c(c1)C(=O)C(=NO)c1ccccc1-2` [Compound 1.016, N-(9-(hydroxyimino)-10-oxo-9,10-dihydrophenanthren-2-yl)pivalamide], the “CD90 effect (relative expansive effect, relative cell number)” value [2, 4] was “++ (0.2 ≤ x < 0.55)” and the “CD133 effect (relative expansive effect, relative cell number)” value [2, 4] was “++ (0.2 ≤ x < 0.55)”.
With `CC(=O)Oc1c(OC(C)=O)c2cc(NC(=O)C(C)(C)C)ccc2c2ccccc12` [Compound 1.012, 2-pivalamidophenanthrene-9,10-diyl Diacetate] the “CD90 effect (relative expansive effect of CD90+ cells)” value ([1]; 0.5 μM sample compound) was “+++++ (1.25 ≤ x)” and the “CD133 effect (relative expansive effect of CD133+ cells)” value ([1]; 0.5 μM sample compound) was “++++ (0.9 ≤ x < 1.25)”.
For `CC(C)(C)NC(=O)c1ccc2c(c1)C(=O)C(=O)c1ccccc1-2` [Compound 1.001, N-(tert-butyl)-9,10-dioxo-9,10-dihydrophenanthrene-2-carboxamide], the “CD90 effect (relative expansive effect of CD90+ cells)” value ([1]; 0.5 μM sample compound) was “++ (0.2 ≤ x < 0.55)” and the “CD133 effect (relative expansive effect of CD133+ cells)” value ([1]; 0.5 μM sample compound) was “+ (x < 0.2)”.
For `Nc1ccc2c(c1)C(=O)C(=O)c1cc(NC(=O)CC(=O)O)ccc1-2` [Compound 1.003, 3-((7-amino-9,10-dioxo-9,10-dihydrophenanthren-2-yl)amino)-3-oxopropanoic acid], the “CD90 effect (relative expansive effect of CD90+ cells)” value ([1]; 0.125 μM sample compound) was “++ (0.2 ≤ x < 0.55)” and the “CD133 effect (relative expansive effect of CD133+ cells)” value ([1]; 0.125 μM sample compound) was “+ (x < 0.2)”.
With `O=C(COCc1ccccc1)Nc1ccc2c(c1)C(=O)C(=O)c1ccccc1-2` [Compound 1.015, 2-(benzyloxy)-N-(9,10-dioxo-9,10-dihydrophenanthren-2-yl)acetamide] the “CD90 effect (relative expansive effect, relative cell number)” value [2, 5] was “+++++ (1.25 ≤ x)” and the “CD133 effect (relative expansive effect, relative cell number)” value [2, 5] was “+++ (0.55 ≤ x < 0.9)”.
With `O=C1C(=O)c2cc(NC(=O)C(Cl)(Cl)Cl)ccc2-c2ccccc21` [Compound 1.009, 2,2,2-trichloro-N-(9,10-dioxo-9,10-dihydrophenanthren-2-yl)acetamide] the “CD90 effect (relative expansive effect of CD90+ cells)” value ([1]; 0.5 μM sample compound) was “+++ (0.55 ≤ x < 0.9)” and the “CD133 effect (relative expansive effect of CD133+ cells)” value ([1]; 0.5 μM sample compound) was “++ (0.2 ≤ x < 0.55)”.
